This is an account of results in patent US10479780B2, “Aminopyrazole derivatives” (Chugai Seiyaku Kabushiki Kaisha, priority 2015, dated 2019).

Holding throughout (assay type): biochemical
One experiment has as its target T1, human Lck enzyme (Homo sapiens, UniProt P06239).
T1 construct: purchased Carna Biosciences, Inc. 08-170
Kind of experiment: Lck enzyme inhibitory activity (time-resolved fluorometry, biotinylated peptide phosphorylation). Conditions: read-out: LCK_IC50. The essentials: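 Readout pairs a europium cryptate-labelled anti-phosphotyrosine antibody with XL665-streptavidin, measured by time-resolved fluorescence. IC50 derived from percent inhibition against untreated controls.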

Another experiment deals with T2, human Src enzyme (Homo sapiens, UniProt P12931).
T2 construct: purchased Carna Biosciences, Inc. 08-173
T2 sequence (P12931 whole entry): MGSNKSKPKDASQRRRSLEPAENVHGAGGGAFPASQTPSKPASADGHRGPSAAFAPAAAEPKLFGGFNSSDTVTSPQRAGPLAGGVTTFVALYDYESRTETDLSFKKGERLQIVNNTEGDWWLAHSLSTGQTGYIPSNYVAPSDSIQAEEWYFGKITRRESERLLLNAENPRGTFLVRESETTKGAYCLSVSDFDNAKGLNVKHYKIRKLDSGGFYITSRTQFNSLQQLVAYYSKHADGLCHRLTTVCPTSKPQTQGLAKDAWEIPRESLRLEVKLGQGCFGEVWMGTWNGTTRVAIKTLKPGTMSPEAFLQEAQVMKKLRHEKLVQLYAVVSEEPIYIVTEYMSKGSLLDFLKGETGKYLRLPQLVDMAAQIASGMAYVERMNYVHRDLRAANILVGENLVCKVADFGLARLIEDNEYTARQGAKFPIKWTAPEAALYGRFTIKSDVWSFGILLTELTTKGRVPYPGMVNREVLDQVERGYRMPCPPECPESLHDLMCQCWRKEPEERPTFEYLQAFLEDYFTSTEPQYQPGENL
The experiment can be described thus: Src enzyme inhibitory activity (time-resolved fluorometry, biotinylated peptide phosphorylation). Conditions: read-out: SRC_IC50. The essentials:
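Compounds were tested for blocking tyrosine phosphorylation of a biotinylated peptide substrate by recombinant human Src. Phosphorylated product was quantified by time-resolved fluorometry using europium cryptate and XL665 conjugates, and IC50 was calculated against the compound-free control.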

A further experiment deals with T3, human Yes1 enzyme (Homo sapiens, UniProt P07947).
T3 construct: made in house
T3 sequence (P07947 whole entry): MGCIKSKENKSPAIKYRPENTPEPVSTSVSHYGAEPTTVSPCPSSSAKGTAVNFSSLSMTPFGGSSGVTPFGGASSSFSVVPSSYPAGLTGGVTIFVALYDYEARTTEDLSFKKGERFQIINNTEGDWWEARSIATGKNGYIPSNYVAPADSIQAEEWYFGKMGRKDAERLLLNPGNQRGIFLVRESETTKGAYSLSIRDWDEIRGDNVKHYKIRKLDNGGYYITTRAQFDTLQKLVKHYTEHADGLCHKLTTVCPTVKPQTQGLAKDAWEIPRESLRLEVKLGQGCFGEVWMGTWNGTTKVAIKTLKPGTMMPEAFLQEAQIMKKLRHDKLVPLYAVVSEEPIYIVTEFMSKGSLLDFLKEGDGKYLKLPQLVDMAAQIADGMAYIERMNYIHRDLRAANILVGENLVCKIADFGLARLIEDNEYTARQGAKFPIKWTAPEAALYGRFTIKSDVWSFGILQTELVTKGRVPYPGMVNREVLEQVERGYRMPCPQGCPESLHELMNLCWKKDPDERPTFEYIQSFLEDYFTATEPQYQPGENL
The experiment can be described thus: Yes1 enzyme inhibitory activity (time-resolved fluorometry, biotinylated peptide phosphorylation). Conditions: read-out: YES_IC50. The essentials:
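Inhibition was expressed against a compound-free control to give IC50, using TR-FRET read-out (Eu-cryptate anti-pTyr antibody, streptavidin-XL665).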

Structures are written as SMILES. pIC50: −log10 of the molar value.

T1 sequence (P06239 whole entry): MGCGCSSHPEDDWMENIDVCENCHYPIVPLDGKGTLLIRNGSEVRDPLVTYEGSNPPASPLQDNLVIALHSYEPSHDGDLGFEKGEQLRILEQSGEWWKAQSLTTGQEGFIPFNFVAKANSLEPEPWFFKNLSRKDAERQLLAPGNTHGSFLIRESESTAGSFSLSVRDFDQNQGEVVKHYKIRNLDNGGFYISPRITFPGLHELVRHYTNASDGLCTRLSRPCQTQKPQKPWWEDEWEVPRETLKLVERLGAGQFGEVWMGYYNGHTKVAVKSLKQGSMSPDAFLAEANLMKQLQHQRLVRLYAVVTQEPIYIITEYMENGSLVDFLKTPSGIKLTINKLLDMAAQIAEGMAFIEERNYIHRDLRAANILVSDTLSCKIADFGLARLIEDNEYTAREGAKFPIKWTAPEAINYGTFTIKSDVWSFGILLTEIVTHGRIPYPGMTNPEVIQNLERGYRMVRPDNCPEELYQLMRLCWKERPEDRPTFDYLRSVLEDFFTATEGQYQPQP

Consider `Cc1cc(Oc2c(F)cccc2F)ncc1-n1ncc(C(=O)c2cc3cc(OC4CCN(C5CCCC5)CC4)c(Br)cc3[nH]2)c1N` [Example 5-1-223, [5-amino-1-[6-(2,6-difluorophenoxy)-4-methylpyridin-3-yl]pyrazol-4-yl]-[6-bromo-5-(1-cyclopentylpiperidin-4-yl)oxy-1H-indol-2-yl] methanone], for which the pIC50 on human Lck enzyme is 8.14; at human Src enzyme it was 8.13; at human Yes1 enzyme, 8.82.
The corresponding values for `Cc1cc(Oc2c(F)cccc2F)ncc1-n1ncc(C(=O)c2cc3cc(OC4CCN(C5CC5)CC4)c(Br)cc3[nH]2)c1N` [Example 5-1-224, [5-amino-1-[6-(2,6-difluorophenoxy)-4-methylpyridin-3-yl]pyrazol-4-yl]-[6-bromo-5-(1-cyclopropylpiperidin-4-yl)oxy-1H-indol-2-yl] methanone] are 8.20, 7.77 and 9.24.
The like results for `Cc1cc(-n2ncc(C(=O)c3cc4cc(OC5CCN(CCO)CC5)c(Br)cc4[nH]3)c2N)ccc1Oc1ccccc1F` [Example 5-1-225, [5-amino-1-[4-(2-fluorophenoxy)-3-methylphenyl]pyrazol-4-yl]-[6-bromo-5-[1-(2-hydroxyethyl)piperidin-4-yl]oxy-1H-indol-2-yl]methanone] were, in that order, 7.92, 7.05 and 9.34.
For `Cc1cc(Oc2c(F)cccc2F)ncc1-n1ncc(C(=O)c2cc3cc(OC4CCN(CCO)CC4)c(Br)cc3[nH]2)c1N` [Example 5-1-226, [5-amino-1-[6-(2,6-difluorophenoxy)-4-methylpyridin-3-yl]pyrazol-4-yl]-[6-bromo-5-[1-(2-hydroxyethyl)piperidin-4-yl]oxy-1H-indol-2-yl]methanone], the pIC50 was 8.70 at human Lck enzyme, 8.48 at human Src enzyme and 9.47 on human Yes1 enzyme.
The like results for `Cc1cc(-n2ncc(C(=O)c3cc4cc(OC5CCN(C6CS(=O)(=O)C6)CC5)c(Br)cc4[nH]3)c2N)ccc1Oc1ccccc1F` [Example 5-1-227, [5-amino-1-[4-(2-fluorophenoxy)-3-methylphenyl]pyrazol-4-yl]-[6-bromo-5-[1-(1,1-dioxothietan-3-yl)piperidin-4-yl]oxy-1H-indol-2-yl]methanone] were, in that order, 7.34, 6.25 and 8.41.
The like results for `Cc1cc(Oc2c(F)cccc2F)ncc1-n1ncc(C(=O)c2cc3cc(OC4CCN(C5CS(=O)(=O)C5)CC4)c(Br)cc3[nH]2)c1N` [Example 5-1-228, [5-amino-1-[6-(2,6-difluorophenoxy)-4-methylpyridin-3-yl]pyrazol-4-yl]-[6-bromo-5-[1-(1,1-dioxothietan-3-yl)piperidin-4-yl]oxy-1H-indol-2-yl]methanone] were, in that order, 8.51, 7.89 and 8.89.
The corresponding values for `Cc1cc(Oc2c(F)cccc2F)ncc1-n1ncc(C(=O)c2cc3cc(OC4CCN(C(C)C)CC4)c(C4CCN(S(C)(=O)=O)CC4)cc3[nH]2)c1N` [Example 5-1-229, (5-amino-1-(6-(2,6-difluorophenoxy)-4-methylpyridin-3-yl)-1H-pyrazol-4-yl)(5-((1-isopropylpiperidin-4-yl)oxy)-6-(1-(methylsulfonyl)piperidin-4-yl)-1H-indol-2-yl)methanone] are 8.62, 8.21 and 9.11.
Turning to `Cc1cc(-n2ncc(C(=O)c3cc4cc(OC5CCN(C(C)C)CC5)c(C5CCN(S(C)(=O)=O)CC5)cc4[nH]3)c2N)ccc1Oc1ccccc1F` [Example 5-1-230, [5-amino-1-[4-(2-fluorophenoxy)-3-methylphenyl]pyrazol-4-yl]-[6-(1-methylsulfonylpiperidin-4-yl)-5-(1-propan-2-ylpiperidin-4-yl)oxy-1H-indol-2-yl]methanone], the values for the pIC50 at human Lck enzyme, at human Src enzyme and on human Yes1 enzyme were 8.15, 7.02 and 9.17, respectively.
The like results for `Cc1cc(-n2ncc(C(=O)c3cc4cc(OC5CCN(C6CCC6)CC5)c(NS(C)(=O)=O)cc4[nH]3)c2N)ccc1Oc1ccccc1F` [Example 5-1-231, N-[2-[5-amino-1-[4-(2-fluorophenoxy)-3-methylphenyl]pyrazole-4-carbonyl]-5-(1-cyclobutylpiperidin-4-yl)oxy-1H-indol-6-yl] methanesulfonamide] were, in that order, 7.14, 6.21 and 8.77.
The corresponding values for `Cc1cc(-n2ncc(C(=O)c3cc4cc(OC5CCN(C6CCC6)CC5)c(N)cc4[nH]3)c2N)ccc1Oc1ccccc1F` [Example 5-1-232, [6-amino-5-(1-cyclobutylpiperidin-4-yl)oxy-1H-indol-2-yl]-[5-amino-1-[4-(2-fluorophenoxy)-3-methylphenyl]pyrazol-4-yl]methanone] are 7.52, 6.64 and 8.85.
The corresponding values for `Cc1cc(-n2ncc(C(=O)c3cc4cc(OC5CCN(C6CCC6)CC5)c(N5C(=O)NC(C)(C)C5=O)cc4[nH]3)c2N)ccc1Oc1ccccc1F` [Example 5-1-233, 3-(2-(5-amino-1-(4-(2-fluorophenoxy)-3-methylphenyl)-1H-pyrazole-4-carbonyl)-5-((1-cyclobutylpiperidin-4-yl)oxy)-1H-indol-6-yl)-5,5-dimethylimidazolidine-2,4-dione] are 7.68, 6.47 and 9.04.
On to `Cc1cc(-n2ncc(C(=O)c3cc4cc(OC5CCN(C6CCC6)CC5)c(F)cc4[nH]3)c2N)ccc1Oc1ccccc1F` [Example 5-1-234, [5-amino-1-[4-(2-fluorophenoxy)-3-methylphenyl]pyrazol-4-yl]-[5-(1-cyclobutylpiperidin-4-yl)oxy-6-fluoro-1H-indol-2-yl]methanone], for which the pIC50 at human Lck enzyme is 7.14; at human Src enzyme it was 6.31; at human Yes1 enzyme, 8.49.
The like results for `Cc1cc(-n2ncc(C(=O)c3cc4cc(OC5CCN(C6CCC6)CC5)c(Cl)cc4[nH]3)c2N)ccc1Oc1ccccc1F` [Example 5-1-235, [5-amino-1-[4-(2-fluorophenoxy)-3-methylphenyl]pyrazol-4-yl]-[6-chloro-5-(1-cyclobutylpiperidin-4-yl)oxy-1H-indol-2-yl] methanone] were, in that order, 7.07, 6.37 and 8.54.
Turning to `Cc1cc(-n2ncc(C(=O)c3cc4cc(OC5CCN(C(C)C)CC5)c(-c5cnn(C)c5)cc4[nH]3)c2N)ccc1Oc1ccccc1F` [Example 5-1-236, (5-amino-1-(4-(2-fluorophenoxy)-3-methylphenyl)-1H-pyrazol-4-yl)(5-((1-isopropylpiperidin-4-yl)oxy)-6-(1-methyl-1H-pyrazol-4-yl)-1H-indol-2-yl)methanone], the pIC50 at human Lck enzyme was 7.39; on human Src enzyme, 6.85; on human Yes1 enzyme, 8.82.
Regarding `Cc1cc(-n2ncc(C(=O)c3cc4cc(OC[C@H](O)CO)c(Br)cc4[nH]3)c2N)ccc1Oc1ccccc1F` [Example 5-1-237, (R)-(5-amino-1-(4-(2-fluorophenoxy)-3-methylphenyl)-1H-pyrazol-4-yl)(6-bromo-5-(2,3-dihydroxypropoxy)-1H-indol-2-yl)methanone], the pIC50 was 7.44 at human Lck enzyme, 6.74 at human Src enzyme and 8.82 at human Yes1 enzyme.
The corresponding values for `Cc1cc(-n2ncc(C(=O)c3cc4cc(OC5CCN(C(C)C)CC5)c(-c5cccs5)cc4[nH]3)c2N)ccc1Oc1ccccc1F` [Example 5-1-238, [5-amino-1-[4-(2-fluorophenoxy)-3-methylphenyl]pyrazol-4-yl]-[5-(1-propan-2-ylpiperidin-4-yl)oxy-6-thiophen-2-yl-1H-indol-2-yl]methanone] are 6.47, 6.07 and 8.09.
On to `Cc1cc(Oc2c(F)cccc2F)ncc1-n1ncc(C(=O)c2cc3cc(OC4CCN(C(C)C)CC4)c(-c4cccs4)cc3[nH]2)c1N` [Example 5-1-239, [5-amino-1-[6-(2,6-difluorophenoxy)-4-methylpyridin-3-yl]pyrazol-4-yl]-[5-(1-propan-2-ylpiperidin-4-yl)oxy-6-thiophen-2-yl-1H-indol-2-yl]methanone], for which the pIC50 at human Lck enzyme was 7.80; at human Src enzyme, 7.40; at human Yes1 enzyme it was 8.30.
The like results for `Cc1cc(-n2ncc(C(=O)c3cc4cc(OC5CCN(C(C)C)CC5)c(-c5cncnc5)cc4[nH]3)c2N)ccc1Oc1ccccc1F` [Example 5-1-240, [5-amino-1-[4-(2-fluorophenoxy)-3-methylphenyl]pyrazol-4-yl]-[5-(1-propan-2-ylpiperidin-4-yl)oxy-6-pyrimidin-5-yl-1H-indol-2-yl]methanone] were, in that order, 7.72, 7.12 and 8.70.
The like results for `Cc1cc(Oc2c(F)cccc2F)ncc1-n1ncc(C(=O)c2cc3cc(OC4CCN(C(C)C)CC4)c(-c4cncnc4)cc3[nH]2)c1N` [Example 5-1-241, [5-amino-1-[6-(2,6-difluorophenoxy)-4-methylpyridin-3-yl]pyrazol-4-yl]-[5-(1-propan-2-ylpiperidin-4-yl)oxy-6-pyrimidin-5-yl-1H-indol-2-yl]methanone] were, in that order, 8.21, 8.26 and 8.74.
The like results for `Cc1cc(-n2ncc(C(=O)c3cc4cc(OC[C@H](O)CO)c(NS(C)(=O)=O)cc4[nH]3)c2N)ccc1Oc1ccccc1F` [Example 5-1-242, (R)—N-(2-(5-amino-1-(4-(2-fluorophenoxy)-3-methylphenyl)-1H-pyrazole-4-carbonyl)-5-(2,3-dihydroxypropoxy)-1H-indol-6-yl)methanesulfonamide] were, in that order, 6.80, 6.30 and 8.72.
